Measurements taken from US5712161A, “Method for culturing animal cells in collagen drops on a support” (Nitta Gelatin Inc., priority 1993, dated 1998).
Read-outs that look alike come from different tables or passages of the source.

Experiments:
[1] = tested on: breast cancer cells (surgical sample from a human cancer patient); assay: Anticancer agent sensitivity, NR extraction method, absorbance; format: cell-based; conditions: for Effect/control (Neutral Red absorbance): control = 1.00
Experimental: A test was conducted in the same way as in Example 1, but the image analysis of live cells as stained with the NR was not carried out, and the NR was instead extracted from the live cells, thus measuring the absorbance. A surgical sample (breast cancer) as obtained from a human cancer patient was used as the starting material, and the test was carried out according to the same procedures and methods as in Example 1, except for the procedures of the formalin-fixation, the drying and the image analysis in the pigment stain analysis step. The NR as incorporated into live cells was extracted by dissolving the collagen gel with collagenase in the culture container and then adding an NR extractant, and the absorbance of the resultant extract was measured.

[2] = tested on: human breast cancer cells (surgical sample); assay: Anticancer agent sensitivity, FDA spectrophotofluorimetry of extracted dye; conditions: 24 h agent contact; for FDA spectrophotofluorimetry fluorescence units: excitation 490 nm, detection 520 nm; for Effect/control (FDA spectrophotofluorimetry): ratio to control = 1.00
Experimental: (§1) The embedded culture was carried out as follows: 1 volume of 10-fold concentrated Ham's F12 culture solution (sodium bicarbonate-free) and 1 volume of a reconstituting buffer solution (50 mM NaOH solution containing 260 mM sodium bicarbonate and 200 mM-HEPES) were added to 8 volumes of Cellmatrix Type I-A (0.3% acid-soluble Type-I collagen solution: product of Nitta Gelatin Inc.); the breast cancer cells and the like as obtained in the above-mentioned preliminary culture and collection steps were added and well mixed into the resultant mixture; the final concentration was adjusted to 5×10^4 cells/ml; and the resultant mixture was kept in ice.
(§2) Next, this collagen mixture solution was placed onto a 24-well multiplate at 30 μl/well using a micropipette and gelated to prepare globular collagen gels (for details see Example 1G).
(§3) A 0.5-ml portion of the culture solution containing an anticancer agent was superposed on the globular collagen gel in which the cancer cells were embedded and which was obtained in the above-mentioned embedding step, and the cancer cells were allowed to be in contacted with the anticancer agent by keeping them in a 5% carbon dioxide incubator at 37° C. for 24 hours. The following six anticancer agents were used: MMC (mitomycin C), CDDP (cisplatin), VDS (vindesine), VP-16, 5-FU (5fluorouracil) and ADM (adriamycin).
(§4) Then, the culture solution containing the anticancer agent was removed by suction, 0.5 ml of a culture solution free from an anticancer agent was instead added, the resultant mixture was shaken in a 5% carbon dioxide incubator, thus washing the globular collagen gel. This procedure was repeated at least every 10 minutes for a total of 3 times, whereby the anticancer agent was removed from the globular collagen gel.
(§5) After the above-mentioned agent contact step, 0.5 ml of a culture solution was added, and the culture was effected at 37° C. in a 5% carbon dioxide incubator for 7-14 days. The culture solution was exchanged every 1-2 days. The proliferation culture solution as used was a culture solution containing a DF culture solution+10% FBS+5μg/ml insulin (product of Sigma Chemical Co.)+10 ng/ml EGF (EGF: epidermal growth factor, product of Becton Dickinson Labware)+20 ng/ml hydrocortisone (product of Sigma Chemical Co.) (see Example 1H).
(§6) The culture container was then transferred to a cooled dark box. The culture solution was exchanged with a culture solution, to which an FDA-staining agent (FDA concentration: 2-10 μg/ml) which reacts due to esterase activity in live cells had been added, and was shaken for one hour in a refrigerator (10° C.), thus reacting the FDA with the cells.
(§7) The cultured cell sample as subjected to the fluorescent stain was washed for one hour with a fresh cooled culture solution, thus removing the extracellular fluorescent reagent. The culture solution as used for the washing was a DME culture solution. This solution was further exchanged with a culture solution of 37° C., shaking was performed for one hour in an incubator at 37° C., and the FDA which had reacted in the cells was extracted into the solution. The culture solution was separated off and measured using a fluorospectrophotometer, with an excitatory wavelength of 490 nm and a detection wavelength of 520 nm.

[3] = tested on: breast cancer cells (surgical sample from a human cancer patient); assay: Anticancer agent sensitivity, MTT assay method, formazane absorbance; format: cell-based; conditions: for Effect/control (formazane absorbance): control = 1.00
Experimental: A test was conducted in the same way as in Example 1, but an MTT reagent was substituted for the AB coloring agent in the colorimetric analysis step. A surgical sample (breast cancer) as obtained from a human cancer patient was used as the starting material, and the test was carried out according to the same procedures and methods as in Example 1, except for the procedures subsequent to the colorimetric analysis step. The formazane as deposited in live cells was extracted by dissolving the collagen gel with collagenase in the culture container and then adding a formazane extractant, and the absorbance of the resultant extract was measured, when the deposited fine crystal of formazane was held in the collagen gel, such that results were obtained with good accuracy.

[4] = tested on: human breast cancer cells (surgical sample); conditions: primary breast cancer cells, 24 h
Experimental: as §1, §2, §3, §4, §5, §6, §7

[5] = tested on: human breast cancer cells (surgical sample); conditions: primary breast cancer cells, 24 h; remark: listed apart in the source
Experimental: (§8) Using a surgical sample as obtained from a human breast cancer patient as the starting material, it was treated according to the order as shown in the flow sheet.
as §1, §3, §4
(§9) After the above-mentioned agent contact step, 0.5 ml of a culture solution was added, and the culture was effected at 37° C. in a 5% carbon dioxide incubator for 7-14 days. The culture solution was exchanged every 1-2 days.
(§10) The culture solution for the washing was free from sodium bicarbonate and cooled to 4° C. before use.
as §6
(§11) The fluorescently colored cells were quantified by image analysis. The image for the image analysis was created using, an inverted fluorescent microscope, a sample holder cooling apparatus (in-house product), an excitatory light irradiation control apparatus, a sample holder driving apparatus and a high-sensitivity cooled CCD camera. The volume was measured on the basis of this image using an image analyzer according to a conventional method. The intensity of the excitatory light was 1×10^3 lux.sec on the sample holder.

[6] = tested on: human breast cancer cells (surgical sample); assay: Anticancer agent sensitivity, globular collagen gel-embedded culture, Alamar Blue fluorescence; conditions: 24 h agent contact; for AlamarBlue fluorescence intensity: excitation 560 nm, detection 590 nm; for Effect/control (AlamarBlue fluorescence): ratio to control = 1.00
Experimental: as §8, §1
(§12) A 0.5-ml portion of the culture solution containing an anticancer agent was superposed on the globular collagen gel in which the cancer cells were embedded and which was obtained in the above-mentioned embedding step, and the cancer cells were allowed to be in contacted with the anticancer agent by keeping them in a 5% carbon dioxide incubator at 37° C. for 24 hours.
as §4, §9
(§13) For the measurement, an AB coloring agent was used to cause a color reaction by the reductive activity of the cells.
(§14) The AB coloring agent was added in an amount of 1/50-1/10 relative to the culture solution, and the reaction was conducted for 6 hours in a carbon dioxide incubator.
(§15) The same culture solution was also measured using a fluorospectrophotometer, with an excitatory wavelength of 560 nm and a detection wavelength of 590 nm.

[7] = tested on: human breast cancer cells (surgical sample); conditions: primary breast cancer cells, 24 h; remark: listed apart in the source
Experimental: as §1, §2, §3, §4, §5
(§16) The culture solution was exchanged with a culture solution, to which an FDA-staining agent (FDA concentration: 2-10 μg/ml) which reacts due to esterase activity in live cells had been added, and was shaken for one hour in a refrigerator (10° C.), thus reacting the FDA with the cells.
as §11
(§17) In addition to the conventional known volume measurement by image analysis, the viability of the cells was also measured by quantifying the fluorescence intensity on the image.

[8] = tested on: human breast cancer cells (surgical sample); conditions: primary breast cancer cells, 24 h; remark: listed apart in the source
Experimental: (§18) The capsule, fat, etc. were removed from the tissue containing the breast cancer using scissors and forceps under aseptic conditions, and then sliced with a razor.
(§19) The live tumor cells as obtained by the above-mentioned preliminary culture and collection steps were embedded into a globular collagen gel and cultured.
as §1, §3, §4, §9
(§20) The viability of the cells in the sample as obtained by the culture was measured.
as §13, §14
(§21) After the reaction, the culture solution was separated off, and the absorbance of the culture solution was measured using a spectrophotometer. The measurement of the absorbance was performed at 570 nm with a reference wavelength of 600 nm.

[9] = tested on: human breast cancer cells (surgical sample); conditions: primary breast cancer cells, 24 h; remark: listed apart in the source
Experimental: as §8, §1, §12, §4, §9, §13, §14, §15

[10] = tested on: human breast cancer cells (surgical sample); assay: Anticancer agent sensitivity, globular collagen gel-embedded culture, Alamar Blue (AB) absorbance; conditions: 24 h agent contact, 7-14 days culture; for AlamarBlue absorbance: 570 nm, reference 600 nm; for Effect/control (AlamarBlue absorbance): ratio to control = 1.00
Experimental: as §18, §19, §1, §3, §4, §9, §20, §13, §14, §21

[11] = tested on: human breast cancer cells (surgical sample); conditions: primary breast cancer cells, 24 h; remark: listed apart in the source
Experimental: as §8, §1, §2, §3, §4, §5
(§22) The culture solution for the washing was a DME culture solution.
(§23) The culture solution was exchanged with a culture solution to which an NR-staining agent had been added (NR concentration: 25-50 μg/ml), and shaking was effected for 2 hours in a carbon dioxide incubator, thus incorporating the NR into the cells.
(§24) After the stain, the culture solution containing the NR was exchanged with PBS (Phosphate Buffered Saline), and the sample was allowed to stand stationary in a room for 10 minutes, thus removing the NR remaining outside of the cells.
(§25) Next, the PBS was exchanged with neutral 10% formalin, and the sample was allowed to stand stationary in a room for 40 minutes, thus fixing the cells and the NR as incorporated into the cells.
(§26) The globular collagen gel to which the cells had been fixed was immersed in distilled water for 10 minutes, thus removing the salts. When the globular collagen gel which had been immersed in the distilled water was air-dried at room temperature, whereby a flat dried product was formed.
(§27) At this time, the cultured cells were fixed in the dried collagen gel while containing the NR.
(§28) The volume of the fixed cells was measured using an image analyzer in the same manner as mentioned above.

[12] = tested on: human breast cancer cells (surgical sample); assay: Anticancer agent sensitivity, Neutral Red stain, volume by image analysis; conditions: 24 h agent contact; for Neutral Red volume: image analysis of fixed, dried gel; for Effect/control (Neutral Red volume): ratio to control = 1.00
Experimental: as §8, §1, §2, §3, §4, §5, §22, §23, §24, §25, §26, §27, §28

[13] = tested on: human breast cancer cells (surgical sample); assay: Anticancer agent sensitivity, FDA stain, fluorescence intensity on image; conditions: 24 h agent contact; for FDA image fluorescence units: fluorescence intensity on image; for Effect/control (FDA image fluorescence): ratio to control = 1.00
Experimental: as §1, §2, §3, §4, §5, §16, §11, §17

[14] = tested on: human breast cancer cells (surgical sample); assay: Anticancer agent sensitivity, FDA stain, volume by image analysis; conditions: 24 h agent contact; for FDA volume: image analysis; for Effect/control (FDA volume): ratio to control = 1.00
Experimental: as §8, §1, §3, §4, §9, §10, §6, §11

[15] = tested on: rabbit-oriented vascular endothelial cells; assay: Proliferation shape of vascular endothelial cells around globular collagen gel containing TGF-β; format: cell-based
Text: The procedure of Example 23 was repealed, but TGF-β (a transformation growth factor) was substituted for the cells of the group A, and rabbit-oriented vascular endothelial cells for the cells of the group B, and the following modifications were made. […] In FIG. 7, the transformation growth factor 70 is contained in the globular collagen gel 20a. A collagen gel 80a in which the rabbit-oriented vascular endothelial cells 50d were embedded was placed in the layered form into the inside of the multiplate 10, such that the globular collagen gel 20a was covered with the collagen gel 80a. The test was carried out in the same way as in Example 22 except for the components as contained in each collagen gel and for the placement of the gels. In addition, the collagen gel 80a was evaluated by microscopy.
As a result, different proliferation shapes of the vascular endothelial cells were observed depending on the distance from the surface of the globular collagen gel 20a.

[16] = tested on: fibroblasts in human lung cancer and human breast cancer samples; assay: Fibroblast proliferation in preliminary culture, microscopic observation; format: cell-based; conditions: 10 μg/ml dextran sulfate in serum culture solution, 7 days
Experimental: Thus, an investigation was made with regard to a serum-free culture solution (DF culture solution+5 μg/ml insulin+10 ng/ml EGF+8 ng/ml sodium selenite+10 μg/ml transferrin+5 mg/ml BSA) (BSA: bovine serum albumin) and a serum culture solution containing dextran sulfate (DF culture solution+10% FBS+insulin+EGF+hydrocortisone 10 μg/ml dextran sulfate).
The experimental materials used were the 14 cases of human lung cancer and 12 cases of human breast cancer which had adhered to the bottom of the culture dishes in Example 1A above as controls, and the above-mentioned culture solutions (the serum-free culture solution and the dextran sulfate-containing serum culture solution) were used to culture cells for 7 days.

[17] = 5-FU concentration 0.1 (Cmax = 1)
[18] = 5-FU concentration 0.2 (Cmax = 1)
[19] = 5-FU concentration 0.4 (Cmax = 1)
[20] = 5-FU concentration 0.6 (Cmax = 1)
[21] = 5-FU concentration 0.8 (Cmax = 1)
[22] = 5-FU concentration 1.0 (Cmax = 1)

In the case of O=c1[nH]cc(F)c(=O)[nH]1 [5-FU, 5fluorouracil], the “Neutral Red absorbance” value [1, 17] is reported as 0.307, the “Effect/control (Neutral Red absorbance)” value [1, 17] is reported as 0.88 and the “Neutral Red absorbance” value [1, 18] is reported as 0.206. For the same compound, the “Effect/control (Neutral Red absorbance)” value [1, 18] was 0.59, the “Neutral Red absorbance” value [1, 19] was 0.123 and the “Effect/control (Neutral Red absorbance)” value [1, 19] was 0.35. The “Neutral Red absorbance” value [1, 20] was 0.100, the “Effect/control (Neutral Red absorbance)” value [1, 20] was 0.29 and the “Neutral Red absorbance” value [1, 21] was 0.079. For the same compound, the “Effect/control (Neutral Red absorbance)” value [1, 21] was 0.23, the “Neutral Red absorbance” value [1, 22] was 0.072 and the “Effect/control (Neutral Red absorbance)” value [1, 22] was 0.21. The “FDA spectrophotofluorimetry fluorescence units” value [2] was 4.68 10^1, the Formazane absorbance [3, 17] was 1.036 and the “Effect/control (formazane absorbance)” value [3, 17] was 0.88. For the same compound, the Formazane absorbance [3, 18] was 0.774, the “Effect/control (formazane absorbance)” value [3, 18] was 0.66 and the Formazane absorbance [3, 19] was 0.599. For the same compound, the “Effect/control (formazane absorbance)” value [3, 19] was 0.51, the Formazane absorbance [3, 20] was 0.515 and the “Effect/control (formazane absorbance)” value [3, 20] was 0.44. The Formazane absorbance [3, 21] was 0.450, the “Effect/control (formazane absorbance)” value [3, 21] was 0.38 and the Formazane absorbance [3, 22] was 0.429. The “Effect/control (formazane absorbance)” value [3, 22] was 0.37, the “Effect/control (FDA spectrophotofluorimetry)” value [4] was 0.63 and the “Effect/control (FDA volume)” value [5] was 0.65. For the same compound, the AlamarBlue fluorescence intensity [6] was 5.07 10^2, the “Effect/control (FDA image fluorescence)” value [7] was 0.62 and the “Effect/control (AlamarBlue absorbance)” value [8] was 0.73. For the same compound, the “Effect/control (AlamarBlue fluorescence)” value [9] was 0.71, the AlamarBlue absorbance [10] was 0.69 and the “Effect/control (Neutral Red volume)” value [11] was 0.64. The “Neutral Red volume” value [12] was 10.76 10^7 μm^3, the “FDA image fluorescence units” value [13] was 4.77 10^1 and the FDA volume [14] was 9.89 10^7 μm^3.
In the case of COc1cccc2c1C(=O)c1c(O)c3c(c(O)c1C2=O)C[C@@](O)(C(=O)CO)C[C@@H]3O[C@H]1C[C@H](N)[C@H](O)[C@H](C)O1 [ADM, adriamycin], the “FDA spectrophotofluorimetry fluorescence units” value [2] is reported as 5.33 10^1, the “Effect/control (FDA spectrophotofluorimetry)” value [2] is reported as 0.72 and the AlamarBlue fluorescence intensity [6] is reported as 4.81 10^2. The “Effect/control (AlamarBlue fluorescence)” value [6] was 0.68, the AlamarBlue absorbance [10] was 0.65 and the “Effect/control (AlamarBlue absorbance)” value [10] was 0.68. The “Neutral Red volume” value [12] was 12.26 10^7 μm^3, the “Effect/control (Neutral Red volume)” value [12] was 0.73 and the “FDA image fluorescence units” value [13] was 5.35 10^1. The “Effect/control (FDA image fluorescence)” value [13] was 0.70, the FDA volume [14] was 10.93 10^7 μm^3 and the “Effect/control (FDA volume)” value [14] was 0.72.
For [NH2][Pt]([NH2])([Cl])[Cl] [CDDP, cisplatin], the “FDA spectrophotofluorimetry fluorescence units” value [2] was 3.50 10^1, the “Effect/control (FDA spectrophotofluorimetry)” value [2] was 0.47 and the AlamarBlue fluorescence intensity [6] was 2.66 10^2. The “Effect/control (AlamarBlue fluorescence)” value [6] was 0.38, the AlamarBlue absorbance [10] was 0.40 and the “Effect/control (AlamarBlue absorbance)” value [10] was 0.42. The “Neutral Red volume” value [12] was 6.25 10^7 μm^3, the “Effect/control (Neutral Red volume)” value [12] was 0.37 and the “FDA image fluorescence units” value [13] was 3.43 10^1. The “Effect/control (FDA image fluorescence)” value [13] was 0.45, the FDA volume [14] was 5.68 10^7 μm^3 and the “Effect/control (FDA volume)” value [14] was 0.37.
For CO[C@@]12[C@H](COC(N)=O)C3=C(C(=O)C(C)=C(N)C3=O)N1C[C@@H]1N[C@@H]12 [MMC, mitomycin C], the “FDA spectrophotofluorimetry fluorescence units” value [2] was 3.37 10^1, the “Effect/control (FDA spectrophotofluorimetry)” value [4] was 0.46 and the “Effect/control (FDA volume)” value [5] was 0.33. The AlamarBlue fluorescence intensity [6] was 3.24 10^2, the “Effect/control (FDA image fluorescence)” value [7] was 0.42 and the “Effect/control (AlamarBlue absorbance)” value [8] was 0.42. The “Effect/control (AlamarBlue fluorescence)” value [9] was 0.46, the AlamarBlue absorbance [10] was 0.40 and the “Effect/control (Neutral Red volume)” value [11] was 0.31. The “Neutral Red volume” value [12] was 5.19 10^7 μm^3, the “FDA image fluorescence units” value [13] was 3.26 10^1 and the FDA volume [14] was 5.07 10^7 μm^3.
With CC[C@]1(O)C[C@@H]2CN(CCc3c([nH]c4ccccc34)[C@@](C(=O)OC)(c3cc4c(cc3OC)N(C)[C@H]3[C@@](O)(C(N)=O)[C@H](O)[C@]5(CC)C=CCN6CC[C@]43[C@@H]65)C2)C1 [VDS, vindesine] the “FDA spectrophotofluorimetry fluorescence units” value [2] was 4.52 10^1, the “Effect/control (FDA spectrophotofluorimetry)” value [4] was 0.61 and the “Effect/control (FDA volume)” value [5] was 0.61. The AlamarBlue fluorescence intensity [6] was 5.13 10^2, the “Effect/control (FDA image fluorescence)” value [7] was 0.62 and the “Effect/control (AlamarBlue absorbance)” value [8] was 0.73. The “Effect/control (AlamarBlue fluorescence)” value [9] was 0.72, the AlamarBlue absorbance [10] was 0.69 and the “Effect/control (Neutral Red volume)” value [11] was 0.60. For the same compound, the “Neutral Red volume” value [12] was 10.10 10^7 μm^3, the “FDA image fluorescence units” value [13] was 4.74 10^1 and the FDA volume [14] was 9.25 10^7 μm^3.
For COc1cc(C2c3cc4c(cc3C(OC3OC5COC(C)OC5C(O)C3O)C3COC(=O)C23)OCO4)cc(OC)c1O (stereo not shown) [VP-16], the “FDA spectrophotofluorimetry fluorescence units” value [2] was 6.90 10^1, the “Effect/control (FDA spectrophotofluorimetry)” value [2] was 0.93 and the AlamarBlue fluorescence intensity [6] was 6.64 10^2. The “Effect/control (AlamarBlue fluorescence)” value [6] was 0.94, the AlamarBlue absorbance [10] was 0,87 and the “Effect/control (AlamarBlue absorbance)” value [10] was 0.91. For the same compound, the “Neutral Red volume” value [12] was 15.54 10^7 μm^3, the “Effect/control (Neutral Red volume)” value [12] was 0.92 and the “FDA image fluorescence units” value [13] was 7.23 10^1. The “Effect/control (FDA image fluorescence)” value [13] was 0.94 and the “Effect/control (FDA volume)” value [14] was 0.93.
TGF-β was tested, and the “Proliferation state of vascular endothelial cells” value (shortened to “Proliferation state”) ([15]; 0 mm from surface of gel 20a) was “lump”, the “Proliferation state” value ([15]; 1 mm from surface of gel 20a) was “tree” and the “Proliferation state” value ([15]; 3 mm from surface of gel 20a) was “lump”. For the same compound, the “Proliferation state” value ([15]; 4 mm from surface of gel 20a) was “lump”.
dextran sulfate was tested, and the “proliferation of the fibroblasts” value [16] was “partially suppressed”.
